Source: US5861424A, “Composition and method for treating cancer” (priority 1995, dated 1999)
Where two headings read alike, the source gives them in different places.

Experiments:
human melanoma LOX = assay: Survival of nude mice implanted with human melanoma LOX; type: in vivo, human melanoma in male athymic Swiss nu/nu mouse; details: Mus musculus, ip, 24 h, read-out: T/C (survival)
Experimental: LOX, a human melanoma cell line, grown subcutaneously in nude mice was excised, trypsinized to yield a single cell suspension using a metal grid with a […]. Red blood cells were lysed by incubation with 0.17 molar ammonium chloride at 4° C. for 20 minutes. Five million viable trypan blue negative cells made up in 0.1 ml of Dulbecco modified Eagles' medium (DME) were injected into the peritoneal cavity of a male athymic Swiss nu/nu mouse. The control group and each treatment group consisted of 5 to 10 mice. Treatment was commenced the following day by intraperitoneal injection.
Ten control mice received 0.25 ml of 2% dextrose on those days the treated groups were injected with the compounds of this invention. The compounds of the General Formulas. (1) to (6) used in this invention which were tested are listed in Table VIII below and the results obtained are shown in Table VIII and FIG. 1-6 of the accompanying drawings. T/C is the ratio, expressed as a percentage of the mean survival age of the treated group to the mean survival age of the untreated control group.

[1] = test system: human colon carcinoma cell line CX-1; assay: Colony formation assay, human colon carcinoma CX-1; type: cell-based; details: Table III; for CX-1 (IC50) / IC50: 24 h treatment, colony count after 7 to 10 days; for Selectivity (ratio of IC50 for CV-1 and IC50 for CX-1): CV-1/CX-1; for IC50: Homo sapiens, Colon carcinoma cell, read-out: CX-1 (IC50)
[2] = test system: human bladder carcinoma EJ cell line; assay: Colony formation assay, human bladder carcinoma EJ; type: cell-based; details: Table IV; for IC50: Homo sapiens, EJ, 24 h, read-out: EJ (IC50); for Selectivity (CV-1 IC50 / EJ IC50): CV-1/EJ
Source text: (§1) The control received culture media only.

[3] = test system: human melanoma LOX cell line; assay: Colony formation assay, human melanoma LOX; type: cell-based; details: Table V; for IC50: Homo sapiens, LOX, 24 h, read-out: LOX (IC50); for Selectivity (CV-1 IC50 / LOX IC50): CV-1/LOX
Source text: as §1

[4] = test system: human pancreatic carcinoma CRL 1420 cell line; assay: Colony formation assay, human pancreatic carcinoma CRL 1420; type: cell-based; details: Table VII; for IC50: Homo sapiens, 24 h; for Selectivity (CV-1 IC50 / CRL-1420 IC50): CV-1/CRL-1420
Source text: as §1
The Selectivity values, CRL 1420 values and CV-1 values for compounds of the General Formulas (1) to (6) used in the present invention are shown in Table VII below.

[5] = test system: normal monkey kidney epithelial cell line CV-1; assay: Colony formation assay, normal monkey kidney epithelial cells CV-1; details: for IC50: Primates, Epithelial cell;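 on all read-outs here: colonies visualized by crystal violet staining, incubation at 37 °C, IC50 relative to untreated wells given culture medium alone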
Experimental: Human colon carcinoma cell line CX-1 or normal monkey kidney epithelial cell line CV-1 was chosen as representatives of cancer cells and normal cells, respectively. […] CX-1 cells (2,000 cells/well) and CV-1 cells (1,000 cells/well) were plated in 24-well plastic culture plates. […] The control received culture media only. Cells were treated with compounds of General Formulas (1) to (6) at 37° C. for 24 hours. After rinsing with fresh culture medium three times, the cells were further incubated at 37° C. for 7 to 10 days. Cell colonies were fixed and stained with 2% crystal violet in 70% ethanol for 10 minutes and rinsed in water. […] The selectivity is defined as the ratio of IC50 for CV-1 and IC50 for CX-1.

[6] = test system: human breast carcinoma MCF-7 cell line; assay: Colony formation assay, human breast carcinoma MCF-7; type: cell-based; details: for Selectivity (CV-1 IC50 / MCF-7 IC50): CV-1/MCF-7; for IC50: Homo sapiens, MCF7, 24 h, read-out: MCF-7 (IC50)
Source text: as §1
The Selectivity values, MCF-7 values and CV-1 values for compounds of the General Formulas (1) to (6) used in the present invention are shown in Table VI below.

[7] = read-out: CV-1 (IC50), Table III, 24 h treatment, colony count after 7 to 10 days
[8] = Table III, 24 h treatment, colony count after 7 to 10 days
[9] = read-out: CV-1 (IC50), Table VII
[10] = read-out: CV-1 (IC50), Table IV
[11] = read-out: CV-1 (IC50), Table VI

SMILES: CCN1C(=CC=c2sc(=CC3=[N+](CC)CCS3)n(CC)c2=O)C=Cc2ccccc21 [Compound 244]
- response vs control in vivo at 10 mg/kg (human melanoma LOX; i.p. on day 1, 3, 5, 7, 9): 153%

SMILES: CCN1C(=CC=c2sc(=Cc3sc4c5ccccc5ccc4[n+]3CC)n(CC)c2=O)Sc2ccc3ccccc3c21 [Compound 51]
- CX-1 (IC50) [1]: 0.03 µg/mL
- Selectivity (ratio of IC50 for CV-1 and IC50 for CX-1) [1]: 333
- IC50 ([2]; 24 h treatment): 0.04 µg/mL
- IC50 ([3]; 24 h treatment): 0.09 µg/mL
- Selectivity (CV-1 IC50 / LOX IC50) [3]: 222
- IC50 ([4]; 24 h treatment): 0.07 µg/mL
- Selectivity (CV-1 IC50 / CRL-1420 IC50) [4]: 286
- response vs control in vivo at 20 mg/kg (human melanoma LOX; i.p. on day 1, 2, 3, 6, 9, 13): 174%

SMILES: CCN1C(C)=CSC1=CC=c1sc(=Cc2sc3ccccc3[n+]2CC)n(CC)c1=O [Compound 96]
- CX-1 (IC50) [1]: 0.03 µg/mL
- Selectivity (ratio of IC50 for CV-1 and IC50 for CX-1) [1]: 667
- IC50 ([3]; 24 h treatment): 0.09 µg/mL
- Selectivity (CV-1 IC50 / LOX IC50) [3]: 222
- response vs control in vivo at 2 mg/kg (human melanoma LOX; 2 mg/kg, i.p. on day 1, 2, 3*, 6*, 9*, 13*, 16* (*4 mg/kg)): 253%
- IC50 ([5]; read-out: CV-1 (IC50), Table V): 20 µg/mL

SMILES: CCN1C(=CC=c2sc(=Cc3sc4c5ccccc5ccc4[n+]3CC)n(CC)c2=O)Sc2ccc3ccccc3c21 [Compound 31]
- IC50 [1]: 0.025 µg/mL
- Selectivity (ratio of IC50 for CV-1 and IC50 for CX-1) [1]: 400
- response vs control in vivo at 40 mg/kg (human melanoma LOX; 40 mg/kg, i.p. on day 1, 2, 3, 4, 8, 10, 17): 169%
- IC50 [5, 7]: 10 µg/mL

SMILES: CCN1C(=CC=c2sc(=Cc3sc4c5ccccc5ccc4[n+]3C)n(CC)c2=O)Sc2ccc3ccccc3c21 [Compound 52]
- CX-1 (IC50) [1]: 0.03 µg/mL
- Selectivity (ratio of IC50 for CV-1 and IC50 for CX-1) [1]: > 667
- EJ (IC50) ([2]; 24 h treatment): 0.05 µg/mL
- Selectivity (CV-1 IC50 / EJ IC50) [2]: > 400
- LOX (IC50) ([3]; 24 h treatment): 0.08 µg/mL
- Selectivity (CV-1 IC50 / LOX IC50) [3]: > 250
- MCF-7 (IC50) ([6]; Table VI, 24 h treatment): 0.03 µg/mL
- Selectivity (CV-1 IC50 / MCF-7 IC50) ([6]; Table VI): > 666
- CRL-1420 (IC50) ([4]; 24 h treatment): 0.06 µg/mL
- Selectivity (CV-1 IC50 / CRL-1420 IC50) [4]: > 333
- response vs control in vivo at 10 mg/kg (human melanoma LOX; i.p. on day 1, 2, 3, 6, 9): 168%
- CV-1 (IC50) [5, 8]: > 20 µg/mL
- CV-1 (IC50) ([5]; Table IV): > 20 µg/mL
- CV-1 (IC50) ([5]; Table V): > 20 µg/mL
- CV-1 (IC50) ([5]; Table VI): > 20 µg/mL
- CV-1 (IC50) ([5]; Table VII): > 20 µg/mL

SMILES: CCN1C(=CC=c2sc(=Cc3scc[n+]3CC)n(CC)c2=O)Sc2ccc3ccccc3c21 [Compound 41]
- IC50 ([4]; 24 h treatment): 0.05 µg/mL
- Selectivity (CV-1 IC50 / CRL-1420 IC50) [4]: 120
- response vs control in vivo at 5 mg/kg (human melanoma LOX; i.p. on day 1, 5, 9): 128%
- IC50 [5, 9]: 1.5 µg/mL

SMILES: CCN1C(=CC=c2sc(=Cc3sc4c5ccccc5ccc4[n+]3CCO)n(CC)c2=O)Sc2ccc3ccccc3c21 [Compound 53]
- IC50 [1]: 0.05 µg/mL
- Selectivity (ratio of IC50 for CV-1 and IC50 for CX-1) [1]: 400
- IC50 ([4]; 24 h treatment): 0.18 µg/mL
- Selectivity (CV-1 IC50 / CRL-1420 IC50) [4]: 111
- response vs control in vivo at 20 mg/kg (human melanoma LOX; i.p. on day 1, 3, 6, 9, 13, 16): 222%
- IC50 [5, 7]: 20 µg/mL
- IC50 [5, 9]: 20 µg/mL

SMILES: CCC[n+]1c(C=c2sc(=CC=C3Sc4c(ccc5ccccc45)N3CC)c(=O)n2CC)sc2cc(C)c(OCC)cc21 [Compound 6]
- IC50 [1]: 0.025 µg/mL
- Selectivity (ratio of IC50 for CV-1 and IC50 for CX-1) [1]: 400
- response vs control in vivo at 5 mg/kg (human melanoma LOX; i.p. on day 1, 3, 5, 7): 126%
- IC50 ([5]; read-out: CV-1 (IC50)): 10 µg/mL

SMILES: CCN1C(=CC=c2sc(=Cc3sc4c5ccccc5ccc4[n+]3C)n(CC)c2=O)Sc2ccc3ccccc3c21 [Compound 33]
- IC50 [1]: 0.02 µg/mL
- Selectivity (ratio of IC50 for CV-1 and IC50 for CX-1) [1]: 1000
- response vs control in vivo at 10 mg/kg (human melanoma LOX; i.p. on day 1, 2, 3, 4, 5, 7, 8, 9, 10, 11): 173%
- IC50 [5, 7]: 20 µg/mL

SMILES: CCN1CCSC1=CC=c1sc(=Cc2sc3ccc(OC)cc3[n+]2CC)n(CC)c1=O [Compound 125]
- IC50 [1]: 0.04 µg/mL
- Selectivity (ratio of IC50 for CV-1 and IC50 for CX-1) [1]: 200
- IC50 ([2]; 24 h treatment): 0.06 µg/mL
- Selectivity (CV-1 IC50 / EJ IC50) [2]: 133
- IC50 ([3]; 24 h treatment): 0.06 µg/mL
- Selectivity (CV-1 IC50 / LOX IC50) [3]: 133
- IC50 ([6]; Table VI, 24 h treatment): 0.06 µg/mL
- Selectivity (CV-1 IC50 / MCF-7 IC50) ([6]; Table VI): 133
- IC50 ([4]; 24 h treatment): 0.05 µg/mL
- Selectivity (CV-1 IC50 / CRL-1420 IC50) [4]: 160
- IC50 [5, 10]: 8 µg/mL
- IC50 ([5]; read-out: CV-1 (IC50), Table V): 8 µg/mL
- IC50 [5, 11]: 8 µg/mL
- IC50 [5, 9]: 8 µg/mL

SMILES: CCN1C(=CC=c2oc(=Cc3sc(-c4ccccc4)c(-c4ccccc4)[n+]3CC)n(CC)c2=O)Oc2ccccc21 [Compound 330]
- IC50 [1]: 0.025 µg/mL
- Selectivity (ratio of IC50 for CV-1 and IC50 for CX-1) [1]: 100
- response vs control in vivo at 5 mg/kg (human melanoma LOX; i.p. on day 1, 3, 5, 7, 9): 128%
- IC50 [5, 7]: 2.5 µg/mL

SMILES: CCN1C(=CC=c2sc(=Cc3sc4c5ccccc5ccc4[n+]3CC)n(CC)c2=O)N(CC(F)(F)C(F)F)c2cc(C(F)(F)F)ccc21 [Compound 230]
- IC50 [1]: 0.05 µg/mL
- Selectivity (ratio of IC50 for CV-1 and IC50 for CX-1) [1]: 375
- IC50 ([2]; 24 h treatment): 0.05 µg/mL
- Selectivity (CV-1 IC50 / EJ IC50) [2]: 300
- IC50 ([3]; 24 h treatment): 0.06 µg/mL
- Selectivity (CV-1 IC50 / LOX IC50) [3]: 200
- IC50 [6]: 0.09 µg/mL
- Selectivity (CV-1 IC50 / MCF-7 IC50) ([6]; Table VI): 167
- IC50 ([4]; 24 h treatment): 0.05 µg/mL
- Selectivity (CV-1 IC50 / CRL-1420 IC50) [4]: 300
- IC50 [5, 7]: 15 µg/mL
- IC50 [5, 10]: 15 µg/mL
- IC50 ([5]; read-out: CV-1 (IC50), Table V): 15 µg/mL
- IC50 [5, 11]: 15 µg/mL
- IC50 [5, 9]: 15 µg/mL

SMILES: CCN1CCSC1=CC=c1sc(=Cc2sc3c4ccccc4ccc3[n+]2CC)n(CC)c1=O [Compound 150]
- CX-1 (IC50) [1]: 0.01 µg/mL
- Selectivity (ratio of IC50 for CV-1 and IC50 for CX-1) [1]: 100
- response vs control in vivo at 5 mg/kg (human melanoma LOX; i.p. on day 1, 2, 9, 13, 16): 216%
- CV-1 (IC50) [5, 8]: 1 µg/mL

SMILES: CCn1c(=Cc2sc(-c3ccccc3)c(-c3ccccc3)[n+]2CC)sc(=CC=C2N(C)c3ccccc3C2(C)C)c1=O [Compound 204]
- response vs control in vivo at 5 mg/kg (human melanoma LOX; i.p. on day 1, 4, 7, 10, 13, 16, 19, 22): 174%
